# Several values for one entry are separate records, joined by “and”; a condition that tells them apart may be missing. Identical values can stand only once. Bridge positions count the residues as written; N and C are the ends. Square brackets hold non-standard residues; d marks the D form. Peptide text beside a SMILES is read from it. Trp(1-Me) = Cn1cc(C[C@H](N)C(=O)O)c2ccccc21
# How the values were obtained:
# [1] = tested on: complement alternative pathway (AP); test: C3b ELISA (inhibition of C3b formation); type: biochemical, human; conditions: for IC50: Table 9, means from three independent experiments, read-out: IC50, C3b ELISA
# Method: (§1) Inhibition of the complement alternative pathway (AP) by compstatin family peptides was assayed by ELISA. Peptides were dissolved in phosphate buffered saline (PBS, 150 mM). Initial peptide concentrations were calculated using the Beer-Lambert Law with an extinction coefficient of 5,500 (1/M·cm) for Trp and 5,470 (1/M·cm) for methylated-Trp present in the sequence, at 280 nm. Nunc Maxisorp 96-well plates were coated with 1 μg lipopolysaccharides (LPS) from Salmonella enteriditis for ˜16 h at room temperature. Plates were washed three times with PBS/0.05% Tween-20 (PBS-T) between each step. Plates were blocked with 4% bovine serum albumin (BSA) in PBS-T for 1 h at 37° C. Serial peptide dilutions were performed in 96-well plates, using gelatin veronal-buffered saline with 5 mM MgCl2 and 10 mM EGTA (GVBS-MgEGTA). Normal human serum (Complement Technology Inc., Tyler, Tex., USA) was diluted in GVBS-MgEGTA and mixed with compstatin serial dilutions to a final concentration of 30%. Serum diluted in GVBS-MgEGTA and GVBS (containing 20 mM EDTA) were used as positive and negative controls for complement activation, respectively. Dilutions were preincubated for 15 minutes at room temperature, transferred to ELISA plates, and incubated for 1 h at 37° C. Generation of C3b and C5b-9 were assayed using horseradish peroxidase (HRP)-conjugated anti-C3 (MP Biomedicals, Solon, Ohio, USA) and anti-05b-9 aEll (Abcam, Cambridge, Mass., USA), respectively. Plates were washed and incubated with either anti-C3-HRP (1:5000 in 1% BSA/PBS-T) or anti-05b-9 (1:1000 in 1% BSA/PBS-T) for 1 h at 37° C. For C5b-9 detection, primary antibody incubation was followed by incubation with anti-mouse-HRP (BioRad, Hercules, Calif., USA) for 1 h at 37° C. (1:5000 in 1% BSA/PBS-T). Bound C3b and C5b-9 were quantified using a 3,3′,5,5′-tetramethylbenzidine substrate solution containing urea hydrogen peroxide in 0.11 M sodium acetate buffer, followed by a 1 N H2SO4 acid stop. Plates were measured spectrophotometrically at 450 nm. Percent inhibition of C3b and C5b-9 deposition was plotted against peptide concentration and the data was fitted to a logistic dose response curve with Prism software (GraphPad, San Diego, Calif., USA) to determine IC50 values.
# (§2) In all assays, MgEGTA was used to chelate Ca′ ions required for classical/lectin pathway complement activation, while providing Mg′ necessary for AP activation. ELISAs allow for direct detection of C3b and C5b-9 formed during AP activation, while erythrocyte lysis assays provide a functional assessment of AP-mediated hemolysis in serum. […] Table 9 summarizes the IC50 values derived from the three different assays. […] The relative potencies of the peptides, based on the measured ICH values, are consistent across all three assays (Peptide III˜Peptide VI˜Peptide IX>Peptide I>Parent). Based on the assay conditions used in this study, peptides inhibited C5b-9 formation with moderately better efficacy than formation of C3b, while slightly higher concentrations were necessary to inhibit AP-mediated hemolysis.
# [2] = tested on: complement alternative pathway (AP); test: Hemolytic assay (rabbit erythrocyte lysis in human serum); type: cell-based; conditions: for IC50: Table 9, means from three independent experiments, read-out: IC50, Hemolytic assay
# Method: Inhibition of complement was also measured via lysis of erythrocytes. Rabbit erythrocytes (Complement Technology Inc., Tyler, Tex., USA) were washed in PBS and resuspended in veronal-buffered saline with 5 mM MgCl2 and 10 mM EGTA (VBS-MgEGTA). Peptide and serum dilutions were prepared as described above, and 1×10^7 erythrocytes were added to each serum/peptide mixture. Erythrocytes diluted in sterile deionized water and in VBS-MgEGTA were used as positive and negative controls for lysis, respectively. Plates were incubated for 20 minutes at 37° C., and centrifuged at 2500×g for 10 minutes.
# In all assays, MgEGTA was used to chelate Ca′ ions required for classical/lectin pathway complement activation, while providing Mg′ necessary for AP activation. ELISAs allow for direct detection of C3b and C5b-9 formed during AP activation, while erythrocyte lysis assays provide a functional assessment of AP-mediated hemolysis in serum.
# [3] = tested on: complement alternative pathway (AP); test: C5b-9 ELISA (inhibition of C5b-9 terminal complex formation); type: biochemical, human
# Method: as §1, §2
# [4] = Table 9, means from three independent experiments, read-out: IC50, C5b-9 ELISA
# [5] = table 13, read-out: C5b-9 ELISA IC50
SMILES,"inhibition less than other peptides ([1]; C3b inhibition in ELISA, versus Peptides I, III, VI, IX)",IC50 [1] [µM],IC50 [2] [µM],"difference in inhibition to other peptides ([2]; hemolysis, versus Peptides I, III, VI, IX)","inhibition less than other peptides ([3]; C5b-9 inhibition in ELISA, versus Peptides I, III, VI, IX)","IC50 [3, 4] [µM]","IC50 [3, 5]"
"CC[C@H](C)[C@H](N)C(=O)N[C@H]1CSSC[C@@H](C(=O)N[C@H](C(N)=O)[C@@H](C)O)NC(=O)[C@H](CCCN=C(N)N)NC(=O)[C@H](Cc2cnc[nH]2)NC(=O)[C@H](Cc2cnc[nH]2)NC(=O)CNC(=O)[C@H](Cc2c[nH]c3ccccc23)NC(=O)[C@H](CC(=O)O)NC(=O)[C@H](CCC(N)=O)NC(=O)[C@H](C(C)C)NC(=O)[C@H](C(C)C)NC1=O [Parent, ICV VQDWGH HRCT-NH2, reference compound]",10- to 15 fold,35,12.9,4- to 6 fold,10- to 15 fold,18.6,18.6 µM and 12.6 µM
"CC(=O)N[C@@H](CCCNC(=N)N)C(=O)N[C@H]1CSSC[C@@H](C(=O)N[C@H](C(N)=O)[C@@H](C)O)NC(=O)[C@H](CCCNC(=N)N)NC(=O)[C@H](Cc2c[nH]cn2)NC(=O)[C@H](C)NC(=O)CNC(=O)[C@H](Cc2c[nH]c3ccccc23)NC(=O)[C@H](CC(=O)O)NC(=O)[C@H](CCC(N)=O)NC(=O)[C@H](Cc2c[nH]c3ccccc23)NC(=O)[C@H](C(C)C)NC1=O [Peptide I, Ac- RCV WQDWGA HRCT-NH2] (Ac-RCVWQDWGAHRCT-NH2; disulfide 2-12)",,2.58,3.33,,,2.02,1 µM and 2 µM
"CC(=O)N[C@@H](CCCNC(=N)N)C(=O)N[C@H]1CSSC[C@@H](C(=O)N[C@H](C(N)=O)[C@@H](C)O)NC(=O)[C@H](CCCNC(=N)N)NC(=O)[C@H](Cc2c[nH]cn2)NC(=O)[C@H](C)NC(=O)CNC(=O)[C@H](Cc2c[nH]c3ccccc23)NC(=O)[C@H](CC(=O)O)NC(=O)[C@H](CCC(N)=O)NC(=O)[C@H](Cc2cn(C)c3ccccc23)NC(=O)[C@H](C(C)C)NC1=O [Peptide III, Ac- RCV meWQDWGA HRCT-NH2] (Ac-RCV[Trp(1-Me)]QDWGAHRCT-NH2; disulfide 2-12)",,1.42,2.25,,,1.07,0.6 µM and 1.1 µM
"CC[C@H](C)[C@H](NC(=O)[C@H](CO)NC(=O)[C@H](CCCNC(=N)N)NC(C)=O)C(=O)N[C@H]1CSSC[C@@H](C(=O)N[C@H](C(N)=O)[C@@H](C)O)NC(=O)[C@H](CCCNC(=N)N)NC(=O)[C@H](Cc2c[nH]cn2)NC(=O)[C@H](C)NC(=O)CNC(=O)[C@H](Cc2c[nH]c3ccccc23)NC(=O)[C@H](CC(=O)O)NC(=O)[C@H](CCC(N)=O)NC(=O)[C@H](Cc2cn(C)c3ccccc23)NC(=O)[C@H](C(C)C)NC1=O [Peptide VI, Ac-RS-ICV meWQDWGA HRCT-NH2]",,1.74,2.23,,,1.13,0.6 µM and 1.1 µM

# Reference: patent publication US9512180B2, “Compstatin analogs” (THE REGENTS OF THE UNIVERSITY OF CALIFORNIA, priority 2012, dated 2016)
